Patent publication US8067410B2, “Phenolic and catecholic amines and prodrugs thereof” (H. Lundbeck A/S, priority 2008, dated 2011)
Structures can show the parent of a compound that is named as a salt. Where two headings read alike, the source gives them in different places.

Tests used:
[1] = biological target: human recombinant D1 receptor (Homo sapiens, UniProt P21728); test: D1 cAMP assay; assay type: cell-based
Procedure: The ability of the compounds to either stimulate or inhibit the D1 receptor mediated cAMP formation in CHO cells stably expressing the human recombinant D1 receptor was measured as follows. Cells were seeded in 96-well plates at a concentration of 11000 cells/well 3 days prior to the experiment. On the day of the experiment the cells were washed once in preheated G buffer (1 mM MgCl2, 0.9 mM CaCl2, 1 mM IBMX (3-i-butyl-1-methylxanthine) in PBS (phosphate buffered saline)) and the assay was initiated by addition of 100 micro-L of a mixture of 30 nM A68930 and test compound diluted in G buffer (antagonism) or test compound diluted in G buffer (agonism). The cells were incubated for 20 minutes at 37° C. and the reaction was stopped by the addition of 100 micro-L S buffer (0.1 M HCl and 0.1 mM CaCl2) and the plates were placed at 4° C. for 1 h. 68 micro-L N buffer (0.15 M NaOH and 60 mM NaOAc) was added and the plates were shaken for 10 minutes. 60 micro-1 of the reaction were transferred to cAMP FlashPlates (DuPont NEN) containing 40 micro-L 60 mM Sodium acetate pH 6.2 and 100 micro-L IC mix (50 mM Sodium acetate pH 6.2, 0.1% sodium azide, 12 mM CaCl2 1% BSA (bovine serum albumin) and 0.15 micro-Ci/mL ^125I-cAMP) were added. Following an 18 h incubation at 4° C. the plates were washed once and counted in a Wallac TriLux counter.

human D2 receptor = biological target: T1, human D2 receptor (Homo sapiens, UniProt P14416); test: D2 cAMP assay; assay type: cell-based
T1 construct: expressed in transfected cells; host or cells: CHO cells
Procedure: The ability of the compounds to either stimulate or inhibit the D2 receptor mediated inhibition of cAMP formation in CHO cells transfected with the human D2 receptor was measure as follows. Cells were seeded in 96 well plates at a concentration of 8000 cells/well 3 days prior to the experiment. On the day of the experiment the cells were washed once in preheated G buffer (1 mM MgCl2, 0.9 mM CaCl2, 1 mM IBMX in PBS) and the assay was initiated by addition of 100 micro-1 of a mixture of 1 micro-M quinpirole, 10 microM forskolin and test compound in G buffer (antagonism) or 10 micro-M forskolin and test compound in G buffer (agonism). The cells were incubated 20 minutes at 37° C. and the reaction was stopped by the addition of 100 micro-1 S buffer (0.1 M HCl and 0.1 mM CaCl2) and the plates were placed at 4° C. for 1 h. 68 micro-L N buffer (0.15 M NaOH and 60 mM Sodium acetate) were added and the plates were shaken for 10 minutes. 60 micro-L of the reaction were transferred to cAMP FlashPlates (DuPont NEN) containing 40 micro-L 60 mM NaOAc pH 6.2 and 100 micro-L IC mix (50 mM NaOAc pH 6.2, 0.1% Sodium azide, 12 mM CaCl2, 1% BSA and 0.15 micro-Ci/ml ^125I-cAMP) were added. Following an 18 h incubation at 4° C. the plates were washed once and counted in a Wallac TriLux counter.

[2] = cAMP formation in CHO cells stably expressing the human recombinant D1 receptor, read-out: D1 EC 50
[3] = inhibition of forskolin-stimulated cAMP formation in CHO cells transfected with the human D2 receptor, read-out: D2 EC 50

Sequence of human recombinant D1 receptor (P21728 whole entry): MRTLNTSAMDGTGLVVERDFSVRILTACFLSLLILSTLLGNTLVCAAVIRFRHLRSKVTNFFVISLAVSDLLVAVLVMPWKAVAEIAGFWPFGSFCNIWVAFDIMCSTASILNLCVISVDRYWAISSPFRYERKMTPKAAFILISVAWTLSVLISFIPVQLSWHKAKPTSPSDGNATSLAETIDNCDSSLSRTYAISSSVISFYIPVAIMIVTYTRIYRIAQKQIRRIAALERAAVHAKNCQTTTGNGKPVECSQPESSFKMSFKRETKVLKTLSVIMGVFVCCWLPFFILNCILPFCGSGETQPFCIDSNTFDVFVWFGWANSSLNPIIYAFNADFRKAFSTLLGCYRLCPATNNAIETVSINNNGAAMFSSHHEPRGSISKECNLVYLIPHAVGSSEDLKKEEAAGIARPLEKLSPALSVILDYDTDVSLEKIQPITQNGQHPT
T1 sequence (P14416 whole entry): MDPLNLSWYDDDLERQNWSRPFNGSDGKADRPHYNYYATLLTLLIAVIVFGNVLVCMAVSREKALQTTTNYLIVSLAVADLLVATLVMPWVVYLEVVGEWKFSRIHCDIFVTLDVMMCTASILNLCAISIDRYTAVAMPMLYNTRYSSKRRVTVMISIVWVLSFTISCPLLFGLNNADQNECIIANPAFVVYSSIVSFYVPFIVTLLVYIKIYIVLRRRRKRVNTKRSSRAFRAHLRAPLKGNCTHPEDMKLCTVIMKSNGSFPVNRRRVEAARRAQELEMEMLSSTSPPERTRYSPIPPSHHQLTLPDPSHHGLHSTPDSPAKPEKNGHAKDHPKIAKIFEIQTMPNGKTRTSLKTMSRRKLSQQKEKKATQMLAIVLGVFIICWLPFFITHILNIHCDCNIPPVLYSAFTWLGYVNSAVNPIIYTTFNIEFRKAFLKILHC

Compound CCCN1C[C@@H](CSC)O[C@@H]2Cc3c(cccc3OC)C[C@H]21 [Example 3c, (2S,4aR,10aR)-9-Methoxy-2-methylsulfanylmethyl-4-n-propyl-3,4,4a,5,10,10a-hexahydro-2H-naphtho[2,3-b][1,4]oxazine] has an EC50 [1, 2] greater than 10 µM and an EC50 (human D2 receptor; [3]) of 110 nM.

Compound CCCN1C[C@H](Cn2ccnc2)O[C@@H]2Cc3c(cccc3OC)C[C@H]21 [Example 3e, (2R,4aR,10aR)-2-Imidazol-1-ylmethyl-9-methoxy-4-n-propyl-3,4,4a,5,10,10a-hexahydro-2H-naphtho[2,3-b][1,4]oxazine] has an EC50 [1] of 5.8 µM and an EC50 (human D2 receptor) of 30 nM.

Compound Oc1cccc2c1C[C@@H]1OCCN(CC3CC3)[C@H]1C2 [Example 5d2, (4aS,10aS)-4-cyclo-Propylmethyl-3,4,4a,5,10,10a-hexahydro-2H-naphtho[2,3-b][1,4]oxazin-9-ol hydrochloride] has an EC50 [1] greater than 10 µM and an EC50 (human D2 receptor) of 1400 nM.

Compound CCCN1C[C@H](C)O[C@@H]2Cc3c(O)cccc3C[C@H]21 [Example 5k, (2S,4aR,10aR)-2-Methyl-4-n-propyl-3,4,4a,5,10,10a-hexahydro-2H-naphtho[2,3-b][1,4]oxazin-9-ol trifluoroacetate] has an EC50 [1] of 0.18 µM and an EC50 (human D2 receptor) of 2 nM.

CCCN1CCO[C@@H]2Cc3c(ccc(O)c3O)C[C@H]21 [Example 7, (4aR,10aR)-4-n-Propyl-3,4,4a,5,10,10a-hexahydro-2H-naphtho[2,3-b][1,4]oxazine-8,9-diol trifluoroacetate] was tested, and the EC50 [1] was 0.2 µM and the EC50 (human D2 receptor) was 0.15 nM.

In the case of CCCN1CCO[C@@H]2Cc3c(ccc4c3OCO4)C[C@H]21 [Example 8c, (6aR,10aR)-7-n-Propyl-6a,7,8,9,10a,11-hexahydro-6H-1,3,10-trioxa-7-aza-cyclo-penta[a]anthracene trifluoroacetate], the EC50 [1, 2] is reported as greater than 10 µM and the EC50 (human D2 receptor; [3]) is reported as 140 nM.
